This note sets out measurements from the NIST ThermoML archive (doi:10.1021/acs.jced.7b00191).

± gives the expanded uncertainty stated by the source.

The conditions of this data set: Liquid; Visual observation in an unstirred cell.

As for `Clc1ccccc1Cl` [1,2-dichlorobenzene], the Critical temperature stood at 698.8 ± 2.8 K.

With `CC(C)CC(C)(C)C` [2,2,4-trimethylpentane], the Critical temperature is 544 ± 2.8 K.

Turning to `CCC(C)(C)C` [2,2-dimethylbutane], the Critical temperature worked out at 489.4 ± 2.8 K.

Regarding `c1ccccc1` [benzene], the Critical temperature is 562.2 ± 2.8 K.

`Fc1ccccc1` [fluorobenzene]: the Critical temperature is 557.3 ± 2.8 K.

With `CCCCCCC` [heptane], the Critical temperature amounted to 540.6 ± 2.8 K.

`CCCCCC` [hexane]: the Critical temperature was 507.4 ± 2.8 K.

`CCCCCCCC` [octane]: the Critical temperature is on record as 568.8 ± 2.8 K.
